Consider 4 compounds from patent publication US20160074405A1, “COMPOSITIONS AND METHODS FOR THE TREATMENT OF DRUG-INDUCED HAND-FOOT SYNDROME” (Duke University, priority 2009, published 2016).

The nature of data set [1]: PPE grade observed in the treated patients under anti-cancer drug. Format: in vivo, human. Conditions: individual patient before sildenafil. As to the method: (§1) The first patient had both metastatic pancreatic cancer and a history of mild Raynaud's syndrome.
(§2) The third patient was a person with a gastro-intestinal stromal tumor (GIST) refractory to imatinib, who was being treated with sunitinib. […] They were treated with topical 2% sildenafil three times daily. To ensure activity in the setting of potentially significant costs for custom formulation, this patient applied topical sildenafil to only their left hand. […] This patient later was dosed with 1% topical sildenafil once per week. In addition, this patient experienced sunitinib-induced gastrointestinal toxicities (enteritis, diarrhea), which were treated with oral sildenafil to allow systemic absorption. The initial dose was 50 mg oral sildenafil daily. […] Thereafter lower doses were used on an as needed basis, including a quarter tablet (50 mg size) given once or twice per week.
(§3) A fourth patient was a person with metastatic angiosarcoma, who was treated with sunitinib for over four years.

The conditions of data set [2]: patients treated with the agent; cited from earlier work.
A short description of data set [3]: Topical sildenafil treatment of patients with drug-induced PPE (case reports). Format: in vivo, human. As to the method:
Four patients were treated with topical sildenafil for PPE, two with PPE related to capecitabine and two with PPE related to sunitinib. […] This initial clinical experience was outside the context of formal clinical trials, since no such trials were available.
as §1
Administration of 5FU was held due to the severity and persistence of the hand-foot syndrome. Topical sildenafil was applied to only the left hand.
as §2, §3

The nature of data set [4]: Side effects of sildenafil treatment in the PPE patients. Format: in vivo, human. As to the method: The third patient was a person with a gastro-intestinal stromal tumor (GIST) refractory to imatinib, who was being treated with sunitinib. Despite a gratifying response to sunitinib, they experienced grade 3 sunitinib-related PPE that required frequent dose holding and reduction. They were treated with topical 2% sildenafil three times daily. To ensure activity in the setting of potentially significant costs for custom formulation, this patient applied topical sildenafil to only their left hand. […] After only 3 doses (1 day) they noticed an improvement on the tenderness and redness of their hands. […] The improvement was “like day and night.” The right hand had all of these complications. These were severe enough that the patient had difficulty physically closing their hand more than halfway due to skin thickening as well as pain. Their left hand was completely flexible. After administration to both hands, they were able for the first time in many months to shake hands and make a first without difficulty or pain and they restarted playing their guitar in their church choir. This patient later was dosed with 1% topical sildenafil once per week. In addition, this patient experienced sunitinib-induced gastrointestinal toxicities (enteritis, diarrhea), which were treated with oral sildenafil to allow systemic absorption. The initial dose was 50 mg oral sildenafil daily. […] Thereafter lower doses were used on an as needed basis, including a quarter tablet (50 mg size) given once or twice per week.
Since each of these patients initially had only one affected skin region treated, followed by treatment of the other similarly affected regions, each patient was able to serve as her/his own control.

A short description of data set [5]: Oral sildenafil treatment of sunitinib-induced gastrointestinal toxicities and hand-foot syndrome (case report). Format: in vivo, human. The conditions noted are these: third patient; 50 mg oral sildenafil daily. How it is done:
as §2

For `CCCCCOC(=O)Nc1nc(=O)n([C@@H]2O[C@H](C)[C@@H](O)[C@H]2O)cc1F` [capecitabine], the “PPE grade under anti-cancer treatment” value in data set [1] is 2-3 grade. In addition, in data set [2], the “frequency of any grade (grade 1-3) PPE” value is at most 54% and the “frequency of severe (grade 3) PPE” value was at most 17%.
As to `CCCc1nn(C)c2c(=O)[nH]c(-c3cc(S(=O)(=O)N4CCN(C)CC4)ccc3OCC)nc12` [sildenafil], the “patient's pain and size and depth of the digital ulcers” value in data set [3] (first patient (capecitabine, Raynaud's), topical 2% applied to ulcers, within a week) is recorded as “marked improvement”. Moreover, in data set [3] (first patient, topical, full palm of one hand), the “PPE of the treated palm” value is on record as “significant improvement”. In addition, in data set [3] (fourth patient (sunitinib 37.5 mg per day, grade 1 at start), topical 2% in cold cream base), the “PPE of treated right hand and foot” value is reported as “improved markedly”. Further, the “time to marked improvement of treated right hand and foot” value in data set [3] (fourth patient, topical 2% in cold cream base) was 1-2 weeks. Besides, the “pain and redness of the left hand” value in data set [3] (second patient (capecitabine/5FU regimens), topical to left hand only, by day 8) is given as “improvement”. Besides, in data set [3] (second patient, by day 72), the “hand-foot syndrome in both hands” value is listed as “resolved”. The “tenderness and redness of hands” value in data set [3] (third patient (sunitinib, grade 3 PPE), topical 2% three times daily, left hand, after 3 doses (1 day)) is “improvement”. Also, in data set [3] (third patient, topical 2% three times daily, after 4 weeks), the “multiple blisters, cracks, and callousness” value is “resolved essentially completely”. Besides, the “pain, redness and blisters” value in data set [3] (third patient, topical 2% three times daily, by one week) is recorded as “markedly improved”. Moreover, the PPE-related symptoms entry in data set [3] (topical sildenafil, patients with capecitabine- or sunitinib-related PPE) was “significantly improved”. In data set [4] (all treated patients), the “adverse impact on cancer's response to treatment” value is “no patient had any suggestion of an adverse impact” and the “local or systemic side effects” value is listed as “No local or systemic side effects”. Further, the “side effects such as headache, chest pain, lightheadedness, spontaneous erections” value in data set [4] (third patient, topical 2% three times daily, month of treatment) is “no side effects”. In data set [5], the “gastrointestinal toxicities and hand-foot syndrome” value was “rapidly improved”; the “time to improvement of gastrointestinal toxicities and hand-foot syndrome” value is at most 1 days.
With `CNC(=O)c1cc(Oc2ccc(NC(=O)Nc3ccc(Cl)c(C(F)(F)F)c3)cc2)ccn1` [sorafenib], in data set [2], the “frequency of any grade (grade 1-3) PPE” value is at most 30% and the “frequency of severe (grade 3) PPE” value was at most 8%.
Regarding `CCN(CC)CCNC(=O)c1c(C)[nH]c(/C=C2\C(=O)Nc3ccc(F)cc32)c1C` [sunitinib], in data set [1], the “PPE grade under anti-cancer treatment” value is 3 grade. For the same compound, in data set [2], the “frequency of any grade (grade 1-3) PPE” value is “up to 21%” and the “frequency of severe (grade 3) PPE” value is given as “up to 5%”.
